In patent US7875745B2, “Compounds having lysophosphatidic acid receptor antagonism and uses thereof” (Ono Pharmaceutical Co., Ltd., priority 2003, dated 2011):

Key:
human EDG-2 = molecular target: T1, human EDG-2 (Homo sapiens, UniProt Q92633); experiment: Evaluation of EDG-2 antagonistic activity by monitoring the change of intracellular calcium ion concentration; assay type: cell-based; conditions: CHO cells overexpressing human EDG-2 gene; LPA 100 nM; intracellular calcium (Fura2-AM)
T1 construct: expressed in transfected cells; host or cells: Chinese hamster ovary (CHO) cells
T1 sequence (Q92633 whole entry): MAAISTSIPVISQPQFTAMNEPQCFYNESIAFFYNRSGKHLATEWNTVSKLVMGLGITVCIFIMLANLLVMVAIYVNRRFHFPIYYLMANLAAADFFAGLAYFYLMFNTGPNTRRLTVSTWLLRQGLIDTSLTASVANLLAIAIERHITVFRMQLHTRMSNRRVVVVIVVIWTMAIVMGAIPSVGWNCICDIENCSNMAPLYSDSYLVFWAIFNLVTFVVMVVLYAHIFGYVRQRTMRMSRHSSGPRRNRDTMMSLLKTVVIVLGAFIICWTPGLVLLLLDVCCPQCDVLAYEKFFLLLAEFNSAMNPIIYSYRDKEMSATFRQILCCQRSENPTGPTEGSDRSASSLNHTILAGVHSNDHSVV
Procedure: Evaluation of EDG-2 Antagonistic Activity by Monitoring the Change of Intracellular Calcium Ion Concentration:
The EDG-2 antagonistic activity was evaluated by using Chinese hamster ovary (CHO) cells which overexpressed human EDG-2 gene. The EDG-2-expressing cells were cultured with Ham's F12 medium (manufactured by GIBCO BRL, No. 11765-047) containing 10% FBS (fetal bovine serum), penicillin/streptomycin and blasticidin (5 μg/ml). Firstly, in order to incorporate Fura2-AM (manufactured by Dojindo, No. 348-05831) into the cells, the cells were incubated in 5 μM Fura2-AM solution (10% FBS, 20 mM HEPES buffer (pH 7.4), 2.5 mM probenecid (manufactured by Sigma, No. P-8761)-containing Ham's F12 medium) at 37° C. for 60 minutes. […] A plate was set in a fluorescence drug screening system (manufactured by Hamamatsu Photonics K.K., FDSS-2000, FDSS-6000) and intracellular calcium ion concentration was measured for 30 seconds without stimulation, and a solution of the compound of present invention was added. Five minutes thereafter, LPA (final concentration: 100 nM) was added, and the intracellular calcium ion concentration before and after the addition at the interval of 3 seconds (excitation wavelength: 340 nm and 380 nm, fluorescence wavelength: 500 nm). […]

[1] = tested on: urethral pressure of rats; experiment: Effect on urethral pressure of rats (in vivo); design: species or system rat; conditions: anesthetized male CD(SD)IGS rats, intravenous, dose of 0.1 mg/kg to 1 mg/kg
Source text: Effect on Urethral Pressure of Rats (in vivo):
Male CD(SD)IGS rats (Japan Charles River, 8 to 9-week-old at the use) were anesthetized by subcutaneous administration of urethane (1.2 g/kg). After dissection at the cervical midline, a jugular vein catheter for compound administration and an artery catheter for blood pressure measurement were inserted. Next, after dissection at the hypogastric midline, the urethra was ligated under the pubic bone. An urethra catheter for urethral pressure measurement was inserted into the urethra from the dissected the top of the bladder, and ligated and fixed at the bladder neck. Each of the urethra catheter and the artery catheter was connected with a pressure-transducer, and the urethral pressure and blood pressure were measured. […] Then, the test compound was intravenously administered, and the urethral pressure and blood pressure were measured for 20 minutes. […]
The test compound was administered at respective doses. […] For the evaluation of the effect of the test compound on the urethral pressure, the values subtracting the urethral pressure before the administration from the measured urethral pressures every 2 minutes after the administration were obtained and a graph of the change with time (decreased amount of the urethral pressure from the base line) was prepared.

`COc1cc([C@@H](O)[C@@H](CCCc2ccccc2)Cc2ccc(CC(=O)O)cc2)cc(OC)c1OC` [Example 20(2), (4-{(2S)-2-[(S)-hydroxy(3,4,5-trimethoxyphenyl)methyl]-5-phenylpentyl}phenyl)acetic acid] was tested, and the IC50 (human EDG-2) was 40 nM, the “change of the urethral pressure after administration” value [1] was “significantly remarkable decrease of the urethral pressure” and the “maximum decreased amount of the urethral pressure, of the absolute value of the urethral pressure (pressure before administration - base line value after death)” value [1] was 30 to 40%.
